From BindingDB's records for doi:10.1021/jm900098v (Kosan Biosciences, 2009)

What follows are compounds tested against Heat shock protein HSP 90-beta (Homo sapiens, UniProt P08238) (assay: Binding affinity to human recombinant HSP90).
Heat shock protein HSP 90-beta, sequence (P08238 whole entry): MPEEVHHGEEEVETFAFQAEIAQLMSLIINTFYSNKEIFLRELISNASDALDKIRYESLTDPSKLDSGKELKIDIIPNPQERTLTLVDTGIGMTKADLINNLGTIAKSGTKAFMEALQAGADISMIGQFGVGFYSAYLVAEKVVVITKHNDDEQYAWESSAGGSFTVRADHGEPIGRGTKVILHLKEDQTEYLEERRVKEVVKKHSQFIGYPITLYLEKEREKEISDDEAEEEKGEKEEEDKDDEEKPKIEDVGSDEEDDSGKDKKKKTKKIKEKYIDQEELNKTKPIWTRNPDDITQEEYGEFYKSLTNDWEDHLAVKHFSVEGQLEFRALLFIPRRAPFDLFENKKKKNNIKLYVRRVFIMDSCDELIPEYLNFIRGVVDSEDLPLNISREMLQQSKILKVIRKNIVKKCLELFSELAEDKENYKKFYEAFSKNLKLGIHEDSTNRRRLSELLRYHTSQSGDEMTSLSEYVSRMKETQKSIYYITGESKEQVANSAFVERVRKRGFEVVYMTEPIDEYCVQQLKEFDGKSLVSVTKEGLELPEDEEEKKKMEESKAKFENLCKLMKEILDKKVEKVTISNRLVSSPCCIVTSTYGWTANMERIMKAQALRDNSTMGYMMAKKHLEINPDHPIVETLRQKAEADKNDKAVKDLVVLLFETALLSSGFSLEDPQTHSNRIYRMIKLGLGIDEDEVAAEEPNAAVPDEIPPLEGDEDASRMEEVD

SMILES | Kd
CO[C@H]1C=CC=C(C)C(=O)Nc2cc(O)c(N=CCN(C)C)c(c2O)C[C@@H](C)C[C@H](OC)[C@H](N)[C@@H](C)/C=C(\C)[C@@H]1OC(N)=O | > 25 µM
CO[C@H]1C=CC=C(C)C(=O)Nc2cc(O)c(N=CCN(C)C)c(c2O)C[C@@H](C)C[C@H](OC)[C@H](NCCF)[C@@H](C)/C=C(\C)[C@@H]1OC(N)=O | > 50 µM
CO[C@H]1C[C@H](C)Cc2c(O)c(cc(O)c2N=CCN(C)C)NC(=O)C(C)=CC=C[C@H](OC)[C@@H](OC(N)=O)/C(C)=C/[C@H](C)/C1=N\OCc1ccccc1 | > 100 µM
CO[C@H]1C[C@H](C)Cc2c(O)c(cc(O)c2N=CCN(C)C)NC(=O)C(C)=CC=C[C@H](OC)[C@@H](OC(N)=O)/C(C)=C/[C@H](C)/C1=N\OCC(=O)O [2-(((8S,9S,12S,14S,16R)-9-(carbamoyloxy)-19-(2-(dimethylamino)ethylamino)-8,14-dimethoxy-4,10,12,16-tetramethyl-3,20,22-trioxo-2-azabicyclo[16.3.1]docosa-1(21),4,6,10,18-pentaen-13-ylidene)aminooxy)acetic acid] | > 25 µM
C=CCO[C@H]1[C@@H](OC)CC(C)=Cc2c(O)c(cc(O)c2N2CCC2)NC(=O)C(C)=CC=C[C@H](OC)[C@@H](OC(N)=O)/C(C)=C/[C@@H]1C [11-O-Allyl-17-(1-azetidinyl)-17-demethoxygeldanamycin] | 2.9 µM
CO[C@H]1[C@@H](OC)C[C@H](C)Cc2c(O)c(cc(O)c2N=CCN(C)C)NC(=O)C(C)=CC=C[C@H](OC)[C@@H](OC(N)=O)/C(C)=C/[C@@H]1C [11-O-Methyl-17-[2-(dimethylamino)ethyl]amino-17-demethoxygeldanamycin] | 0.8 µM
CO[C@H]1C[C@H](C)Cc2c(O)c(cc(O)c2N=CCF)NC(=O)C(C)=CC=C[C@H](OC)[C@@H](OC(N)=O)C(C)=C[C@H](C)C1N=O (stereo partly drawn) [(8S,9S,12S,13E,14S,16R)-19-(2-fluoroethylamino)-13-(hydroxyimino)-8,14-dimethoxy-4,10,12,16-tetramethyl-3,20,22-trioxo-2-azabicyclo[16.3.1]docosa-1(21),4,6,10,18-pentaen-9-yl carbamate] | > 25 µM
C=CC=Nc1c(O)cc2c(O)c1C[C@@H](C)C[C@H](OC)C(N=O)[C@@H](C)C=C(C)[C@H](OC(N)=O)[C@@H](OC)C=CC=C(C)C(=O)N2 (stereo partly drawn) [(8S,9S,12S,13E,14S,16R)-19-(allylamino)-13-(hydroxyimino)-8,14-dimethoxy-4,10,12,16-tetramethyl-3,20,22-trioxo-2-azabicyclo[16.3.1]docosa-1(21),4,6,10,18-pentaen-9-yl carbamate] | > 10 µM
CO[C@H]1[C@@H](OC)C[C@H](C)Cc2c(O)c(cc(O)c2N=CCN2CCCC2)NC(=O)C(C)=CC=C[C@H](OC)[C@@H](OC(N)=O)/C(C)=C/[C@@H]1C [(8S,9S,12S,13R,14S,16R)-8,13,14-trimethoxy-4,10,12,16-tetramethyl-3,20,22-trioxo-19-(2-(pyrrolidin-1-yl)ethylamino)-2-azabicyclo[16.3.1]docosa-1(21),4,6,10,18-pentaen-9-yl carbamate] | 1 µM
CNCC=Nc1c(O)cc2c(O)c1C[C@@H](C)C[C@H](OC)[C@H](OC(=O)CN)[C@@H](C)/C=C(\C)[C@H](OC(N)=O)[C@@H](OC)C=CC=C(C)C(=O)N2 [(8S,9S,12S,13R,14S,16R)-9-(carbamoyloxy)-8,14-dimethoxy-4,10,12,16-tetramethyl-19-(2-(methylamino)ethylamino)-3,20,22-trioxo-2-azabicyclo[16.3.1]docosa-1(21),4,6,10,18-pentaen-13-yl 2-aminoacetate] | > 25 µM
CO[C@H]1C=CC=C(C)C(=O)Nc2cc(O)c(N=CCF)c(c2O)C[C@@H](C)C[C@H](OC)[C@H](OC(=O)CN)[C@@H](C)/C=C(\C)[C@@H]1OC(N)=O [(8S,9S,12S,13R,14S,16R)-9-(carbamoyloxy)-19-(2-fluoroethylamino)-8,14-dimethoxy-4,10,12,16-tetramethyl-3,20,22-trioxo-2-azabicyclo[16.3.1]docosa-1(21),4,6,10,18-pentaen-13-yl 2-aminoacetate] | > 25 µM
CO[C@H]1C=CC=C(C)C(=O)Nc2cc(O)c(N=CCN(C)C)c(c2O)C[C@@H](C)C[C@H](OC)[C@H](NCCN(C)C)[C@@H](C)/C=C(\C)[C@@H]1OC(N)=O [(8S,9S,12S,13R,14S,16R)-13,19-bis(2-(dimethylamino)ethylamino)-8,14-dimethoxy-4,10,12,16-tetramethyl-3,20,22-trioxo-2-azabicyclo[16.3.1]docosa-1(21),4,6,10,18-pentaen-9-yl carbamate] | > 50 µM
CO[C@H]1C=CC=C(C)C(=O)Nc2cc(O)c(N=CCN(C)C)c(c2O)C[C@@H](C)C[C@H](OC)[C@H](NCC(F)F)[C@@H](C)/C=C(\C)[C@@H]1OC(N)=O [(8S,9S,12S,13R,14S,16R)-13-(2,2-difluoroethylamino)-19-(2-(dimethylamino)ethylamino)-8,14-dimethoxy-4,10,12,16-tetramethyl-3,20,22-trioxo-2-azabicyclo[16.3.1]docosa-1(21),4,6,10,18-pentaen-9-yl carbamate] | 2.9 µM
CO[C@H]1C=CC=C(C)C(=O)Nc2cc(O)c(N=CCN3CCCC3)c(c2O)C[C@@H](C)C[C@H](OC)[C@H](O)[C@@H](C)/C=C(\C)[C@@H]1OC(N)=O [(8S,9S,12S,13R,14S,16R)-13-hydroxy-8,14-dimethoxy-4,10,12,16-tetramethyl-3,20,22-trioxo-19-(2-(pyrrolidin-1-yl)ethylamino)-2-azabicyclo[16.3.1]docosa-1(21),4,6,10,18-pentaen-9-yl carbamate] | 0.4 µM
CO[C@H]1C=CC=C(C)C(=O)Nc2cc(O)c(N=CCc3cnc[nH]3)c(c2O)C[C@@H](C)C[C@H](OC)[C@H](O)[C@@H](C)/C=C(\C)[C@@H]1OC(N)=O [(8S,9S,12S,13R,14S,16R)-19-(2-(1H-imidazol-4-yl)ethylamino)-13-hydroxy-8,14-dimethoxy-4,10,12,16-tetramethyl-3,20,22-trioxo-2-azabicyclo[16.3.1]docosa-1(21),4,6,10,18-pentaen-9-yl carbamate] | 0.8 µM
CO[C@H]1[C@@H](OC)C[C@H](C)Cc2c(O)c(cc(O)c2N=CCN2CCC2)NC(=O)C(C)=CC=C[C@H](OC)[C@@H](OC(N)=O)/C(C)=C/[C@@H]1C [(8S,9S,12S,13R,14S,16R)-19-(2-(azetidin-1-yl)ethylamino)-8,13,14-trimethoxy-4,10,12,16-tetramethyl-3,20,22-trioxo-2-azabicyclo[16.3.1]docosa-1(21),4,6,10,18-pentaen-9-yl carbamate] | 1 µM
CO[C@H]1C=CC=C(C)C(=O)Nc2cc(O)c(N=CCN3CCC3)c(c2O)C[C@@H](C)C[C@H](OC)[C@H](O)[C@@H](C)/C=C(\C)[C@@H]1OC(N)=O [(8S,9S,12S,13R,14S,16R)-19-(2-(azetidin-1-yl)ethylamino)-13-hydroxy-8,14-dimethoxy-4,10,12,16-tetramethyl-3,20,22-trioxo-2-azabicyclo[16.3.1]docosa-1(21),4,6,10,18-pentaen-9-yl carbamate] | 0.4 µM
CO[C@H]1C=CC=C(C)C(=O)Nc2cc(O)c(N=CCN(C)C)c(c2O)C[C@@H](C)C[C@H](OC)[C@H](NCC(F)(F)F)[C@@H](C)/C=C(\C)[C@@H]1OC(N)=O [(8S,9S,12S,13R,14S,16R)-19-(2-(dimethylamino)ethylamino)-8,14-dimethoxy-4,10,12,16-tetramethyl-3,20,22-trioxo-13-(2,2,2-trifluoroethylamino)-2-azabicyclo[16.3.1]docosa-1(21),4,6,10,18-pentaen-9-yl carbamate] | 4 µM
CO[C@H]1C=CC=C(C)C(=O)Nc2cc(O)c(N=CCN(C)C)c(c2O)C[C@@H](C)C[C@H](OC)[C@H](NCCC(F)(F)F)[C@@H](C)/C=C(\C)[C@@H]1OC(N)=O [(8S,9S,12S,13R,14S,16R)-19-(2-(dimethylamino)ethylamino)-8,14-dimethoxy-4,10,12,16-tetramethyl-3,20,22-trioxo-13-(3,3,3-trifluoropropylamino)-2-azabicyclo[16.3.1]docosa-1(21),4,6,10,18-pentaen-9-yl carbamate] | > 10 µM
C=CC=Nc1c(O)cc2c(O)c1C[C@@H](C)C[C@H](OC)[C@H](OC(=O)CN)[C@@H](C)/C=C(\C)[C@H](OC(N)=O)[C@@H](OC)C=CC=C(C)C(=O)N2 [(8S,9S,12S,13R,14S,16R)-19-(allylamino)-9-(carbamoyloxy)-8,14-dimethoxy-4,10,12,16-tetramethyl-3,20,22-trioxo-2-azabicyclo[16.3.1]docosa-1(21),4,6,10,18-pentaen-13-yl 2-aminoacetate] | > 25 µM
C=CC=Nc1c(O)cc2c(O)c1C[C@@H](C)C[C@H](OC)[C@H](OC(=O)CCN)[C@@H](C)/C=C(\C)[C@H](OC(N)=O)[C@@H](OC)C=CC=C(C)C(=O)N2 [(8S,9S,12S,13R,14S,16R)-19-(allylamino)-9-(carbamoyloxy)-8,14-dimethoxy-4,10,12,16-tetramethyl-3,20,22-trioxo-2-azabicyclo[16.3.1]docosa-1(21),4,6,10,18-pentaen-13-yl 3-aminopropanoate] | > 25 µM
CO[C@H]1[C@@H](OC)CC(C)=Cc2c(O)c(cc(O)c2N2CCC2)NC(=O)C(C)=CC=C[C@H](OC)[C@@H](OC(N)=O)/C(C)=C/[C@@H]1C [(8S,9S,12S,13R,14S,16R)-19-(azetidin-1-yl)-8,13,14-trimethoxy-4,10,12,16-tetramethyl-3,20,22-trioxo-2-azabicyclo[16.3.1]docosa-1(21),4,6,10,18-pentaen-9-yl carbamate] | 4 µM
CO[C@H]1C[C@H](C)Cc2c(O)c(cc(O)c2N=CCN(C)C)NC(=O)C(C)=CC=C[C@H](OC)[C@@H](OC(N)=O)/C(C)=C/[C@H](C)/C1=N\OCCN(C)C [(8S,9S,12S,14S,16R)-13-(2-(dimethylamino)ethoxyimino)-19-(2-(dimethylamino)ethylamino)-8,14-dimethoxy-4,10,12,16-tetramethyl-3,20,22-trioxo-2-azabicyclo[16.3.1]docosa-1(21),4,6,10,18-pentaen-9-yl carbamate] | > 100 µM
C=CCO/N=C1/[C@@H](OC)C[C@H](C)Cc2c(O)c(cc(O)c2N=CCN(C)C)NC(=O)C(C)=CC=C[C@H](OC)[C@@H](OC(N)=O)/C(C)=C/[C@@H]1C [(8S,9S,12S,14S,16R)-13-(allyloxyimino)-19-(2-(dimethylamino)ethylamino)-8,14-dimethoxy-4,10,12,16-tetramethyl-3,20,22-trioxo-2-azabicyclo[16.3.1]docosa-1(21),4,6,10,18-pentaen-9-yl carbamate] | > 100 µM
